Laboratory results as given in patent US10266564B2, “Cationic lipid cordiarimide hybrid compounds and a process for preparation thereof” (COUNCIL OF SCIENTIFIC & INDUSTRIAL RESEARCH, priority 2014, dated 2019).
Entries after “also recorded” stand apart in the source; their conditions may differ.

Legend:
[1] = tested on: HepG2 (hepatocellular carcinoma); assay: MTT assay for cell viability, HepG2; type: cell-based, human; settings: Homo sapiens, HepG2, 48 h
Protocol: (§1) The human cancer cell lines e.g. HepG2 (hepatocellular carcinoma, ATCC® HB-8065™), PC-3 (human prostate cancer cells, ATCC® CRL-1435™), MCF-7 (breast adenocarcinoma, ATCC® […]), and mouse embryo fibroblasts (NIH/3T3, ATCC® CRL-1658™), used in the present study were obtained from the ATCC (American Type Culture Collection, USA and maintained in RPMI 1640 (Roswell Park Memorial Institute, Merck) with 10% FBS (Merck), supplemented with 1% antibiotic and antimycotic solution (Gibco, USA) at 37° C. in a humidified incubator with 5% CO2. All stock solutions of the compounds were prepared in cell culture grade DMSO (dimethyl sulfoxide) and stored at −20° C. Compounds were diluted in culture media prior to use in experiments. Annexin V-FITC apoptosis detection kits were purchased from Calbiochem. MTT dye was procured from Sigma-Aldrich. All the flow cytometry experiments were performed using a FACScan (Becton Dickinson, Mountain View, Calif.) flow cytometer, equipped with a single 488 nm argon laser.
(§2) Cell viability was assessed by MTT assay, which is based on the reduction of MTT by mitochondrial dehydrogenases of viable cells to form a purple formazan product. Briefly, cells (5-6×10^3/well) were plated in 96 well plates. After incubating overnight, the cells were treated with […] different concentrations (100, 50, 20, 10, 5, 2.5, 1.25 μM) in triplicates with the cationic lipidated cordiarimide and intermediates for 48 h. Subsequently, 10 μL of MTT (10 mg/mL) was added to each well and incubated for 3 h. The MTT formazan formed by viable cells was dissolved in 100 μL of DMSO and shaken for 10 min. The absorbance was measured on an ELISA reader. Each test was repeated at least three times. The concentration of the compound which gives the 50% growth inhibition value corresponding to IC50, was calculated using GraphPad prism 5 software. In the present invention we have screened 26 lipidated cordiarimides and the results are described in table 1.

[2] = tested on: MCF-7 (breast adenocarcinoma); assay: MTT assay for cell viability, MCF-7; type: cell-based, human; settings: Homo sapiens, MCF7, 48 h
Protocol: as §1, §2

[3] = tested on: HepG2, NH/3T3, PC-3, MCF-7 cell lines; assay: MTT assay, summary over the cell line panel; type: cell-based; settings: across tested cell lines
Protocol: as §1, §2

[4] = tested on: mouse embryo fibroblasts (NIH/3T3); assay: MTT assay for cell viability, NIH/3T3; type: cell-based; settings: NIH3T3, 48 h
Protocol: as §1, §2

[5] = tested on: PC-3 (human prostate cancer cells); assay: MTT assay for cell viability, PC-3; type: cell-based; settings: Homo sapiens, 48 h
Protocol: as §1, §2

caspase-3 in HepG2 cells = assay: Caspase-3 colorimetric activation assay; type: cell-based, human; settings: HepG2, 5 and 10 μM, 24 h
Protocol: The activity of caspase-3 was determined using a caspase-3 colorimetric assay kit (Sigma Aldrich) according to the manufacturer's protocol. Briefly, HepG2 cells (1×10^6 cells/well) were treated with 5 and 10 μM of 8i and 8k for 24 h. The cells were harvested and lysed by addition of lysis buffer. Cell lysates were mixed with colorimetric substrate (Ac-DEVD-pNA) and incubated at 37° C. in the dark for 4 h. The absorbance was measured at 405 nm in an ELISA reader. Caspase-3 activity was expressed as the change of the activity compared to the control (FIG. 3).

HepG2 cells [6] = assay: Cell cycle analysis, PI staining by flow cytometry; type: cell-based, human; settings: HepG2, 24 h, 5, 10, and 20 mM as printed
Protocol: For cell cycle distribution studies after treatment with different molar concentrations of 8i and 8k, HepG2 cells were fixed overnight in 70% ethanol, rehydrated in PBS with ribonuclease A (100 μg/ml) and Triton-X (1%) for 30 min at room temperature then PI (at 50 μg/ml) was added and incubated in the dark for 30 min and analyzed with a flow cytometer. Experiments were repeated two times independently.

HepG2 cells [7] = assay: Apoptosis, annexin V/PI staining by flow cytometry; type: cell-based, human; settings: HepG2, 24 h
Protocol: Quantitation of apoptotic cells by annexin V staining was carried out according to the manufacturer's instructions. Briefly, cells (5×10^5 cells/well) were seeded in 6 well plates and treated with 5 μM of 8h-8k for 24 h. After incubation, cells were washed with PBS and stained with 1.25 μL of annexin V-FITC and 10 μL of media binding reagent and incubated for 20 min. After that 10 μL of PI was added and samples were analyzed using a flow cytometer. Annexin V-FITC was analyzed using excitation and emission settings of 488 nm and 535 nm (FL-1 channel); PI, 488 nm and 610 nm (FL-2 channel). Debris and clumps were gated out using forward and orthogonal light scatter. Each experiment was repeated two times independently. Results are illustrated in FIG. 1 and the percentage of Annexin-V/PI positive cells increased gradually from 20 to 70% after 24 h of treatment (FIG. 1).

human ligase I = human ligase I (Homo sapiens, UniProt P18858); assay: Ligation assay, DNA ligase I; type: biochemical; settings: screening, FIG. 4 and FIG. 7
Chain of human ligase I (P18858 whole entry): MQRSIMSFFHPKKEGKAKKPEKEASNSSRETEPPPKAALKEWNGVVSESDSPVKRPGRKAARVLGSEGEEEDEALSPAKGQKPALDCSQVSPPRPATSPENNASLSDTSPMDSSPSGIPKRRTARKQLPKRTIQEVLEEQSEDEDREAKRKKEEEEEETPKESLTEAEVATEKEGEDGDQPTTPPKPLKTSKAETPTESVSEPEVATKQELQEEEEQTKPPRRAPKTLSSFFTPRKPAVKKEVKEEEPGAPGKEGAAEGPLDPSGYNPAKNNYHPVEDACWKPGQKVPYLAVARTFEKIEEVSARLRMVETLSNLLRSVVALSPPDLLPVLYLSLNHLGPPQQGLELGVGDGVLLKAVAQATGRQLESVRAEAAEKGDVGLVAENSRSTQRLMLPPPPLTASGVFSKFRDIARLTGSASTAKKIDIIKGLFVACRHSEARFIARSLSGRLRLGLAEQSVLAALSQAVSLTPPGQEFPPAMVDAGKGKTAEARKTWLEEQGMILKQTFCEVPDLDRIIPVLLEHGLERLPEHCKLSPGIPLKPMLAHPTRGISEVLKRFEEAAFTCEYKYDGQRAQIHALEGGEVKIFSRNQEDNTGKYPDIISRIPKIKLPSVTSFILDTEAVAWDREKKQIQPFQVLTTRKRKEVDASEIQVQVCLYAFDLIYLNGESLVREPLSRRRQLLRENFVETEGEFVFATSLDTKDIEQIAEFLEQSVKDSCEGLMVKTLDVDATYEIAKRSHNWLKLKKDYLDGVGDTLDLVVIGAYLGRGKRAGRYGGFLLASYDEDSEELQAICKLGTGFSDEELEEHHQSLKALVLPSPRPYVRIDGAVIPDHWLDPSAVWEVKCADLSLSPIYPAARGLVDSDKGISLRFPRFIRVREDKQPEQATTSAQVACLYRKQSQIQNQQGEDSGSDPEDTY
Text: The ligation assay was done strictly following the assay protocol described in Xi Chen et. al, Cancer Res 2008; 68(9):3169-3177. The DNA molecules 52 mer (5′-3′), 28-mer (5′-3′) and 34-mer (5′-3′) were used to construct a double stranded nicked substrate for the ligase enzyme (FIG. 4). The 34-mer oligo was labelled with 32P-AMP to form a substrate for ligase and to form a ligase-AMP intermediate. During ligation, the ligase would transfer the AMP to the nick forming a phosphodiester bond and seal the nick. The ligated DNA molecule would be larger in size and run higher up on a 7% Urea-containing denaturing acrylamide gel. If an inhibitor is added to the reaction mixture prior to the addition of ligase, this would lead to an inhibition of ligation and a corresponding loss of labelled ligated product in the gel. We would then be able to calculate the percentage of inhibition of ligation by estimating the amount of ligated product in the lane with no inhibitor and comparing it with the lanes containing different inhibitor molecules or with the same inhibitor molecule at different concentrations.

HepG2 = settings: according to Kittakoop et al.; cited from earlier work
MOLT-3 = settings: according to Kittakoop et al.; cited from earlier work
A549 = settings: according to Kittakoop et al.; cited from earlier work
HuCCA-1 = settings: according to Kittakoop et al.; cited from earlier work

IC50 [1] [µM] | IC50 [2] [µM] | IC50 [5] [µM] | Structure (SMILES) | antiproliferative / anticancer activity (in words) [3] | IC50 [4] [µM] | caspase-3 activation (caspase-3 in HepG2 cells) | effect on cell cycle progression (HepG2 cells [6]) | apoptosis induction (in words) (HepG2 cells [7]) | DNA ligase I / ligation inhibition (in words) (human ligase I) | cytotoxicity toward HepG2 (HepG2) | IC50 (MOLT-3) [µM] | cytotoxicity toward A549 (A549) | cytotoxicity toward HuCCA-1 (HuCCA-1)
3.43 | 6.37 | > 20 | CCCCCCCC[N+](C)(CCCCCCCC)CC(=O)NC1CCC(=O)N(CC(=O)c2ccccc2)C1=O (stereo not shown) [Compound 8g, {[2,6-Dioxo-1-(2-oxo-2-phenyl-ethyl)-piperidin-3-ylcarbamoyl]-methyl}-Methyl-dioctyl-ammonium iodide] | very good anticancer activity without selectivity | 5.48 |  |  |  |  |  |  |  | 
3.07 | 5.21 | 4.23 | CCCCCCCCCC[N+](C)(CCCCCCCCCC)CC(=O)NC1CCC(=O)N(CC(=O)c2ccccc2)C1=O (stereo not shown) [Compound 8i, Bis-decyl-{[2,6-dioxo-1-(2-oxo-2-phenyl-ethyl)-piperidin-3-ylcarbamoyl]-methyl}-methyl-ammonium iodide] | very good anticancer activity without selectivity | 2.13 | activated the caspase-3 in HepG2 cells dose dependently; also recorded: activated the casepase-3 in HepG2 cells dose dependently | did not altered cell cycle progression; also recorded: did not show any impact on cell cycle progression | induced significant amount of apoptosis |  |  |  |  | 
> 20 | > 20 | > 20 | CCCCCCCCCCCCC[N+](C)(CCCCCCCCCCCCC)CC(=O)NC1CCC(=O)N(CC(=O)c2ccccc2)C1=O (stereo not shown) [Compound 8l, {[2,6-Dioxo-1-(2-oxo-2-phenyl-ethyl)-piperidin-3-ylcarbamoyl]-methyl}-Methyl-ditridecyl-ammonium iodide] |  | > 20 |  |  |  | did not elicit any DNA ligase I inhibition |  |  |  | 
> 20 | > 20 | > 20 | CCCCCCCCCCCCCC[N+](C)(CCCCCCCCCCCCCC)CC(=O)NC1CCC(=O)N(CC(=O)c2ccccc2)C1=O (stereo not shown) [Compound 8m, {[2,6-Dioxo-1-(2-oxo-2-phenyl-ethyl)-piperidin-3-ylcarbamoyl]-methyl}Methyl-ditetradecyl-ammonium iodide] |  | > 20 |  |  |  | did not elicit any DNA ligase I inhibition |  |  |  | 
 |  |  | CC(=O)NC1CCC(=O)N(CC(=O)c2ccccc2)C1=O (stereo not shown) [Cordiarimide A] |  |  |  |  |  | did not show any ligation inhibition | inactive | 145 | inactive | inactive
